Experiments:
Format in all cases: cell-based
[1] = biological target: Ba/F3-EGFR-D770_N771insNPG cells (Homo sapiens, UniProt P00533, INS772GNP, cells depend on it); experiment: Ba/F3 cell survival assay, EGFR D770_N771insNPG; conditions: without IL-3, without EGF, 48 h; read-out: BA/F3 (insNPG) IC50
Procedure: (§1) 293T cells from ATCC were transfected with pBABEpuro expression constructs for mutant EGFR (V769_D770insASV, D770_N771insNPG, N771_P772insH, H773_V774insNPH, E746_A750del, L858R, D770_N771insSVD C797S, E746_A750del C797S, L858R C797S, L861Q) or mutant ERBB2 (A775_G776insYVMA) and pCL-Eco packaging vector using Fugene-6 transfection reagent from Promega. Plates were incubated at 37° C. for 48 h. Retrovirus was harvested by filtering the media supernatant through a 0.45 μm filter.
(§2) Ba/F3 cells purchased from DSMZ were grown in RPMI+10% FBS+10 ng/mL IL-3 and infected with filtered retroviral supernatant at a 1:2 dilution. Polybrene was added to a concentration of 8 μg/mL, plates were spun for 90 min, and incubated overnight at 37° C. 2 μg/mL puromycin was added to the infected cells 24 h after infection and cells were continually grown in the presence of puromycin and 10 ng/mL IL-3. Following stably expressing Ba/F3 cell lines were generated: Ba/F3-EGFR-V769_D770insASV, Ba/F3-EGFR-D770_N771insNPG, Ba/F3-EGFR-N771_P772insH, Ba/F3-EGFR-H773_V774insNPH, Ba/F3-EGFR-E746_A750del, Ba/F3-EGFR-L858R, Ba/F3-EGFR-D770_N771 insSVD C797S, Ba/F3-EGFR-E746_A750del C797S, Ba/F3-EGFR-L858R C797S, Ba/F3-EGFR L861Q and Ba/F3-ERBB2-A775_G776insYVMA (Ba/F3-vector-control).
(§3) For cell survival assays, Ba/F3 cells were grown to a density of 1-2 million cells per mL, spun down and resuspended in media without IL-3, and replated at a concentration 200,000-500,000 cells per mL. The cells ectopically expressing WT EGFR plated with 10 ng/mL Millipore Culture grade EGF and Ba/F3 cells containing mutant EGFR or Mutant ERBB2 were cultivated without EGF. The cells ectopically expressing pBABEpuro empty vector were plated with 10 ng/mL IL-3.
(§4) 2 days later, cells were plated in 50 μL in a 384 well plate at a concentration of 4000 cells per well for cells assayed in the absence of IL-3 and 2000 cells per well for cells assayed in the presence of IL-3. 100 nL of compound was added to each well using a 100 nL pin head, and plates were incubated at 37° C. for 48 h.
(§5) Cell viability was measured by adding 20 μL of Cell Titer-Glo Luminescent Cell Viability Reagent diluted 1:3 in PBS. Plates were sealed with Perkin Elmer Top-Seal, inverted several times to mix, and immediately centrifuged at 1000 rpm for 2 min. Plates were incubated in low light conditions for 8-10 min and luminescence was measured.

[2] = biological target: Ba/F3-EGFR-V769_D770insASV cells (Homo sapiens, UniProt P00533, DUP767-769, cells depend on it); experiment: Ba/F3 cell survival assay, EGFR V769_D770insASV; conditions: without IL-3, without EGF, 48 h; read-out: BA/F3 (ASV) IC50
Sequence of Ba/F3-EGFR-V769_D770insASV cells (P00533 with tags, fused parts or gaps DUP767-769): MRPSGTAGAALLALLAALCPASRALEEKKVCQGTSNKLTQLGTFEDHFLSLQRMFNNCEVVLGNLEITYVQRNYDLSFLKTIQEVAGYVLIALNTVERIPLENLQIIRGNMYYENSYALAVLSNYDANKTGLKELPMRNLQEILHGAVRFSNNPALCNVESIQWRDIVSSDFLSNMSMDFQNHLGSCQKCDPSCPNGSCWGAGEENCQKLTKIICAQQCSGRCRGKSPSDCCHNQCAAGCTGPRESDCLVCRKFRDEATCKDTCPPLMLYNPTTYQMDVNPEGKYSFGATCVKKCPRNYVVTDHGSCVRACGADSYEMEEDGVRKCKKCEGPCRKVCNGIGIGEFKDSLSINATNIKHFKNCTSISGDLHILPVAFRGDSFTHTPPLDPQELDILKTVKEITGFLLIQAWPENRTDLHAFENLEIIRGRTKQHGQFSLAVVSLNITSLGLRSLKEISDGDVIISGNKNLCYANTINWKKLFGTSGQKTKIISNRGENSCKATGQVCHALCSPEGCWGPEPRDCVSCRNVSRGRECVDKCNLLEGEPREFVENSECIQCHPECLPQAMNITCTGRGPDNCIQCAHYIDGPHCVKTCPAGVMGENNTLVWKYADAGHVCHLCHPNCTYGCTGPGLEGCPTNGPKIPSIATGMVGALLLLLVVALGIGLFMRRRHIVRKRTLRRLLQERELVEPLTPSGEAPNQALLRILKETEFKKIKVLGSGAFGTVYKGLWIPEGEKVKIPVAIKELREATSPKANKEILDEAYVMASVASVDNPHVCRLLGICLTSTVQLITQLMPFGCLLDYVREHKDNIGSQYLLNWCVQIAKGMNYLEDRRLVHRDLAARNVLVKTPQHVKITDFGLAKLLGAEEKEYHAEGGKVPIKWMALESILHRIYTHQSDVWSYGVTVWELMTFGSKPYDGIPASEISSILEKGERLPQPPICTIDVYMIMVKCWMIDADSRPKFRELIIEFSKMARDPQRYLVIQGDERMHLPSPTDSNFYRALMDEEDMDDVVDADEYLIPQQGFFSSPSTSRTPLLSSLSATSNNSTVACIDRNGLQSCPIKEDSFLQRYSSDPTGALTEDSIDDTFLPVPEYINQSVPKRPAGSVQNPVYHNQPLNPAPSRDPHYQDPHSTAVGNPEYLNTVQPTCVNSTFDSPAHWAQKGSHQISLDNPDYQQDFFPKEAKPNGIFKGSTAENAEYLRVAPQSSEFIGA
Procedure: as §1, §2, §3, §4, §5

[3] = biological target: Ba/F3-EGFR-N771_P772insH cells (Homo sapiens, UniProt P00533, INS771H, cells depend on it); experiment: Ba/F3 cell survival assay, EGFR N771_P772insH; conditions: without IL-3, without EGF, 48 h; read-out: BA/F3 (EGFR N771_772 insH) IC50
Procedure: as §1, §2, §3, §4, §5

[4] = biological target: Ba/F3-EGFR-H773_V774insNPH cells (Homo sapiens, UniProt P00533, DUP771-773, cells depend on it); experiment: Ba/F3 cell survival assay, EGFR H773_V774insNPH; conditions: read-out: BA/F3 (EGFR 773_774insNPH) IC50 [mol/l]; without IL-3, without EGF, 48 h
Sequence of Ba/F3-EGFR-H773_V774insNPH cells (P00533 with tags, fused parts or gaps DUP771-773): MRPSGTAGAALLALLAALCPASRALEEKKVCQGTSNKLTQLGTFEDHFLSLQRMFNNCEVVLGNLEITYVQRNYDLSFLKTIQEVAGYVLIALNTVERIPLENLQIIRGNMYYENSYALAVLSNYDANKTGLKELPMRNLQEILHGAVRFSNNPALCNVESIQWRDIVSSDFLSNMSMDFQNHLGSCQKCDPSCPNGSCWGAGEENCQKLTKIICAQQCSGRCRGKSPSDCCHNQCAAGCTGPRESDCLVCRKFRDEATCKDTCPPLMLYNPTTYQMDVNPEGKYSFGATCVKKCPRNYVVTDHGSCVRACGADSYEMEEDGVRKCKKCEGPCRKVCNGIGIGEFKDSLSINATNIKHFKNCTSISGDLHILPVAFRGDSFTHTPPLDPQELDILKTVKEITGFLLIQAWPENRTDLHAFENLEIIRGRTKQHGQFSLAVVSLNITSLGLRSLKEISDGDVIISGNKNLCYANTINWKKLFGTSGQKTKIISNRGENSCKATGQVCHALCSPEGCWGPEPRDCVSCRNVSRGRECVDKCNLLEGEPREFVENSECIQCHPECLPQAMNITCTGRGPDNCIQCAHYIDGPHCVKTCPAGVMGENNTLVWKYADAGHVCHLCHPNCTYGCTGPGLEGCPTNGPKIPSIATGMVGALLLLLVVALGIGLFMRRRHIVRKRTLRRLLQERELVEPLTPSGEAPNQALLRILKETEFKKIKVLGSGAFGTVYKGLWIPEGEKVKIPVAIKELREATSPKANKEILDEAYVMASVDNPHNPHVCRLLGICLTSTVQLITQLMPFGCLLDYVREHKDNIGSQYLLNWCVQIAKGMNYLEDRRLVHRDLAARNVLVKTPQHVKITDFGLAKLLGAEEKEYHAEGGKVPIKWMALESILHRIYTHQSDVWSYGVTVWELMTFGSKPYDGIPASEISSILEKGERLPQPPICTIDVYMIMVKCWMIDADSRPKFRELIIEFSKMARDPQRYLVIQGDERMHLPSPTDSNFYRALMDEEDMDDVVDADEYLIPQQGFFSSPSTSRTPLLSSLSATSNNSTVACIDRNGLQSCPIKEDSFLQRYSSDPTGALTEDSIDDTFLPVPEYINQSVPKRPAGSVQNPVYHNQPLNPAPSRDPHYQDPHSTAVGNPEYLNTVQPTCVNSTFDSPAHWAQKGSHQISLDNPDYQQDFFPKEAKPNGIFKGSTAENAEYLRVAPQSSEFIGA
Procedure: as §1, §2, §3, §4, §5

[5] = biological target: Ba/F3-EGFR-E746_A750del cells (Homo sapiens, UniProt P00533, DEL746-750, cells depend on it); experiment: Ba/F3 cell survival assay, EGFR E746_A750del; conditions: without IL-3, without EGF, 48 h; read-out: BA/F3 (EGFR E746_A750del) IC50
Procedure: as §1, §2, §3, §4, §5

Ba/F3-EGFR-L858R cells = Ba/F3-EGFR-L858R cells (Homo sapiens, UniProt P00533, L858R, cells depend on it); experiment: Ba/F3 cell survival assay, EGFR L858R; conditions: without IL-3, without EGF, 48 h; read-out: BA/F3 (EGFR L858R) IC50
Procedure: as §1, §2, §3, §4, §5

Ba/F3-EGFR L861Q cells = Ba/F3-EGFR L861Q cells (Homo sapiens, UniProt P00533, L861Q, cells depend on it); experiment: Ba/F3 cell survival assay, EGFR L861Q; conditions: without IL-3, without EGF, 48 h; read-out: BA/F3 (EGFR L861Q) IC50
Sequence of Ba/F3-EGFR L861Q cells (P00533 whole entry L861Q): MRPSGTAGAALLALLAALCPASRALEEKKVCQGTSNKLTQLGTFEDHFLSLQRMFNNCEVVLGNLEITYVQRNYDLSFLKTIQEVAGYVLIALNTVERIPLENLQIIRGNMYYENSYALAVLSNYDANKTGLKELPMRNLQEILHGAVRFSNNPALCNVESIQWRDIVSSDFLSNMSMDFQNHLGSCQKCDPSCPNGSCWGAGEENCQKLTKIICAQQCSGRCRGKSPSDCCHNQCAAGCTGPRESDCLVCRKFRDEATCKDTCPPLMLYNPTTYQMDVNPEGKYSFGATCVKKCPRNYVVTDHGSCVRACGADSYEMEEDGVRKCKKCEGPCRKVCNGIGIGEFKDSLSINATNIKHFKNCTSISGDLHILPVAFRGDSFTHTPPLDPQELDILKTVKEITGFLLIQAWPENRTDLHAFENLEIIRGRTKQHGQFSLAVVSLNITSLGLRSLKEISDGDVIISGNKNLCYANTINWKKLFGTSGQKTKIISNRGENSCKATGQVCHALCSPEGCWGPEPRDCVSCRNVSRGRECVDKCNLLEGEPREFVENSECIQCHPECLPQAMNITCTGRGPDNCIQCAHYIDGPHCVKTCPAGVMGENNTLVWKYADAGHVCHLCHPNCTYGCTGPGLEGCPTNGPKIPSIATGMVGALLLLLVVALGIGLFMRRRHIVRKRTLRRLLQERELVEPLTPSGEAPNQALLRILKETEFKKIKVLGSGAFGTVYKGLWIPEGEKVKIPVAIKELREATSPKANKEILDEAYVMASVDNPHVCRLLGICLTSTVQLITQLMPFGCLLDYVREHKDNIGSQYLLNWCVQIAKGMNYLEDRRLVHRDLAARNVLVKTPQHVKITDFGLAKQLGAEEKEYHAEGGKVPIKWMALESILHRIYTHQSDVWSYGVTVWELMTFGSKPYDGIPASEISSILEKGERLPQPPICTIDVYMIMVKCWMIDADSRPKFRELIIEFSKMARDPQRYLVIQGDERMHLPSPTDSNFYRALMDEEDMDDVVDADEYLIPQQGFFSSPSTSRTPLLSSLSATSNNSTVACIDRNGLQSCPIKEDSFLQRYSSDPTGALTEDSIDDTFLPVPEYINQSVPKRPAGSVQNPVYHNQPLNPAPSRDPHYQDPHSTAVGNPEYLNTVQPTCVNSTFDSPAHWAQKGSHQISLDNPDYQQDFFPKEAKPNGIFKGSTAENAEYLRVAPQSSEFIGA
Procedure: as §1, §2, §3, §4, §5

[6] = biological target: Ba/F3-EGFR-D770_N771 insSVD C797S cells (Homo sapiens, UniProt P00533, DUP768-770/C797S, cells depend on it); experiment: Ba/F3 cell survival assay, EGFR D770_N771insSVD C797S; conditions: without IL-3, without EGF, 48 h; read-out: BA/F3 (EGFR 0770_N771 insSVD C797S) IC50
Procedure: as §1, §2, §3, §4, §5

[7] = biological target: Ba/F3-EGFR-L858R C797S cells (Homo sapiens, UniProt P00533, C797S/L858R, cells depend on it); experiment: Ba/F3 cell survival assay, EGFR L858R C797S; conditions: without IL-3, without EGF, 48 h; read-out: BA/F3 (EGFR L858R C797S) IC50
Procedure: as §1, §2, §3, §4, §5

[8] = biological target: Ba/F3-ERBB2-A775_G776insYVMA cells (Homo sapiens, UniProt P04626, DUP772-775, cells depend on it); experiment: Ba/F3 cell survival assay, ERBB2 A775_G776insYVMA; conditions: without IL-3, without EGF, 48 h; read-out: BA/F3 (ERBB2 A775_G776 insYVMA) IC50
Sequence of Ba/F3-ERBB2-A775_G776insYVMA cells (P04626 with tags, fused parts or gaps DUP772-775): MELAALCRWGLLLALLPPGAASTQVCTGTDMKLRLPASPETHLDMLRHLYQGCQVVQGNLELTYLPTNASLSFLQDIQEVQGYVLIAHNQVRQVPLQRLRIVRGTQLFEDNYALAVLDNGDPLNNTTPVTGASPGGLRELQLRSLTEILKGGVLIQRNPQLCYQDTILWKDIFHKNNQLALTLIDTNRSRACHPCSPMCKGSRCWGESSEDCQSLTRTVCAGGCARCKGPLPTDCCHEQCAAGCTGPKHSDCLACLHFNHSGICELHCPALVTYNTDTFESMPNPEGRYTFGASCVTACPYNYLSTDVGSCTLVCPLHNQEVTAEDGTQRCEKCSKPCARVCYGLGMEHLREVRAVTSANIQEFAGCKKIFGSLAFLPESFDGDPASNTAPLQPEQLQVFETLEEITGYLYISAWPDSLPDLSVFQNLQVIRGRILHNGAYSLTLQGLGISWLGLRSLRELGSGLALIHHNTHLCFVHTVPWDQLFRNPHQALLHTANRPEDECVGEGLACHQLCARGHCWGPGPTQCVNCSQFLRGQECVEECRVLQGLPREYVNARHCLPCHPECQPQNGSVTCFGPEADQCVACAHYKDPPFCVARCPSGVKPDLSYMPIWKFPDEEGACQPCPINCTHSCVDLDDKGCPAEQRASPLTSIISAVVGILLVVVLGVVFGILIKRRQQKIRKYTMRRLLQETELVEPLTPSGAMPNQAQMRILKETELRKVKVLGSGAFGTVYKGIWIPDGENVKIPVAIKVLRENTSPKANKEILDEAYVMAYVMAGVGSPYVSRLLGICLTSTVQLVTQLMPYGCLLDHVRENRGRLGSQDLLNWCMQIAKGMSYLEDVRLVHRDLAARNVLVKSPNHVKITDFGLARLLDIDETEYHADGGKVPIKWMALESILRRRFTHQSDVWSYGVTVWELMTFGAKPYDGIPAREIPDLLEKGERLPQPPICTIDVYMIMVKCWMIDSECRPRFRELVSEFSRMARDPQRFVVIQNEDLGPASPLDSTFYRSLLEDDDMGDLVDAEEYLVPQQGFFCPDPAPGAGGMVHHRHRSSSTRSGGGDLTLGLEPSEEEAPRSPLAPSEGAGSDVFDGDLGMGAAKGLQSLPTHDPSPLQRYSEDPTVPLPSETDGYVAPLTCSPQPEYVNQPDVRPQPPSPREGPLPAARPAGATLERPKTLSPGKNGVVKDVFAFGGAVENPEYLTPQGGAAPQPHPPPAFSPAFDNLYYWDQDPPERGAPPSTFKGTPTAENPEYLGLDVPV
Procedure: as §1, §2, §3, §4, §5

| Compound | GI50 [1] [nM] | GI50 [2] [nM] | GI50 [3] [nM] | GI50 [4] [nM] | GI50 [5] [nM] | GI50 (Ba/F3-EGFR-L858R cells) [nM] | GI50 (Ba/F3-EGFR L861Q cells) [nM] | GI50 [6] [nM] | GI50 [7] [nM] | GI50 [8] [nM] |
| --- | --- | --- | --- | --- | --- | --- | --- | --- | --- | --- |
| COc1c(Cl)cccc1Nc1c(-c2ccncc2OC[C@@H]2COCCO2)[nH]c2c1C(=O)NCC2 (single isomer, unassigned) [Example 2] | 4.44 | 4.66 | 7.48 | 28.2 | < 0.158 | 0.525 | 14.8 | 8.22 | 0.603 | 8.31 |
| COc1c(F)cccc1Nc1c(-c2ccncc2OCC2COCCO2)[nH]c2c1C(=O)NCC2 (single isomer, unassigned) [Example 5, 2-{3-[(1,4-dioxan-2-yl)methoxy]pyridin-4-yl}-3-(3-fluoro-2-methoxyanilino)-1,5,6,7-tetrahydro-4H-pyrrolo[3,2-c]pyridin-4-one] | 26.3 | 28.7 | 11.5 | 79.3 | 0.739 | 2.03 | 30.9 | 37 | 2.67 |  |
| O=C1NCCc2[nH]c(-c3ccncc3OCC3COCCO3)c(Nc3cccc(Cl)c3Cl)c21 (single isomer, unassigned) [Example 8, 3-(2,3-dichloroanilino)-2-{3-[(1,4-dioxan-2-yl)methoxy]pyridin-4-yl}-1,5,6,7-tetrahydro-4H-pyrrolo[3,2-c]pyridin-4-one] | 11.6 | 9.62 | 4.91 | 23.1 | < 0.158 | 0.701 | 13.7 | 14.6 | 1.2 | 13.1 |
| COc1c(F)cccc1Nc1c(-c2ccncc2OCC2CN(C)CCO2)[nH]c2c1C(=O)NCC2 (single isomer, unassigned) [Example 14, 3-(3-fluoro-2-methoxyanilino)-2-{3-[(4-methylmorpholin-2-yl)methoxy]pyridin-4-yl}-1,5,6,7-tetrahydro-4H-pyrrolo[3,2-c]pyridin-4-one] | 12.5 | 16.4 | 7.6 | 65.8 | 1.72 | 1.22 | 20.1 | 24.9 | 1.91 | 13.6 |
| COc1c(Cl)cccc1Nc1c(-c2ccncc2OCC2COC(C)(C)CO2)[nH]c2c1C(=O)NCC2 (single isomer, unassigned) [Example 32, 3-(3-chloro-2-methoxyanilino)-2-{3-[(5,5-dimethyl-1,4-dioxan-2-yl)methoxy]pyridin-4-yl}-1,5,6,7-tetrahydro-4H-pyrrolo[3,2-c]pyridin-4-one] | 9.38 | 13.2 | 11 | 47.3 | 2.89 | 1.06 | 17.4 | 15.8 | 1.12 | 16.7 |
| Cc1c(Cl)cccc1Nc1c(-c2ccncc2OCC2COC(C)(C)CO2)[nH]c2c1C(=O)NCC2 (single isomer, unassigned) [Example 46, 3-(3-chloro-2-methyl-anilino)-2-[3-[(5,5-dimethyl-1,4-dioxan-2-yl)methoxy]-4-pyridyl]-1,5,6,7-tetrahydropyrrolo[3,2-c]pyridin-4-one] | 14.3 | 11.7 | 5.77 | 38.9 | 1.05 | 0.957 | 15.8 |  |  | 11 |
| Cc1c(F)cccc1Nc1c(-c2ccncc2OCC2COCCO2)[nH]c2c1C(=O)NCC2 (single isomer, unassigned) [Example 48, 2-[3-(1,4-dioxan-2-ylmethoxy)-4-pyridyl]-3-(3-fluoro-2-methyl-anilino)-1,5,6,7-tetrahydropyrrolo[3,2-c]pyridin-4-one] | 42.4 | 41.8 | 17.6 | 142 | 1.43 | 2.36 | 39.7 |  |  | 39.8 |
| Cc1c(Cl)cccc1Nc1c(-c2ccncc2OC[C@H]2COCCO2)[nH]c2c1C(=O)NCC2 (single isomer, unassigned) [Example 50] | 11.3 | 10.4 | 7.42 | 40.3 | 1.1 | 1.07 | 24 | 26.7 | 1.6 | 10.3 |
| COc1c(F)cccc1Nc1c(-c2ccncc2OC[C@@H]2COCCN2C)[nH]c2c1C(=O)NCC2 [Example 20, 3-(3-fluoro-2-methoxyanilino)-2-(3-{[(3S)-4-methylmorpholin-3-yl]methoxy}pyridin-4-yl)-1,5,6,7-tetrahydro-4H-pyrrolo[3,2-c]pyridin-4-one] | 14.7 | 11.7 | 6.59 | 56.7 |  |  |  | 12.2 | 0.791 | 23.5 |
| COc1c(Cl)cccc1Nc1c(-c2ccncc2OC[C@@H]2COCCN2C)[nH]c2c1C(=O)NCC2 [Example 21, 3-(3-chloro-2-methoxyanilino)-2-(3-{[(3S)-4-methylmorpholin-3-yl]methoxy}pyridin-4-yl)-1,5,6,7-tetrahydro-4H-pyrrolo[3,2-c]pyridin-4-one] | 5.65 | 7.78 | 4.22 | 27.6 | 0.203 | 0.644 | 7.34 | 7.84 | 0.444 | 13.4 |
| Cc1c(Cl)cccc1Nc1c(-c2ccncc2OC[C@@H]2CN(C)CCO2)[nH]c2c1C(=O)NCC2 [Example 42, 3-(3-chloro-2-methylanilino)-2-(3-{[(2S)-4-methylmorpholin-2-yl]methoxy}pyridin-4-yl)-1,5,6,7-tetrahydro-4H-pyrrolo[3,2-c]pyridin-4-one] | 12 | 14.1 | 6.01 | 48.5 | 0.486 | 1.51 | 18.8 | 19.3 | 1.63 | 13.2 |

Source: patent US12679836B2, “4H-pyrrolo[3,2-c]pyridin-4-one compounds” (Bayer Aktiengesellschaft, priority 2019, dated 2026)
